“And” between values parts separate entries of the source, which are not always exact repeats. Equal values may be shown once.
Assays:
[1] = Metabolic stability assay, rat liver microsomes; conditions: for Remaining in rat liver microsomes (Sup Fig.6b): in % (unit assumed)
Description: 7. Metabolic stability assay. The metabolic profile of NHWD-870 was determined using mouse, rat, dog, monkey, and human liver microsomes using the protocols […]
No. Compound ID Exat Mass Stock Conc.
1) 100 mM potassium phosphate buffer, PH7.4; 2) 10mM MgCI2
1) Intermediate solution: Dilute 5 μL of compound or control from stock solution (10 mM) with 45 uL DMSO,then mixed with 450 μL 1:1 Methanol/Water (Conc.: 10 0 […]
2) Working solution: Dilute 50 μL from intermediate solution with 450 μL 100 mM potassium phosphate buffer (Conc.: 10 μM, 4.5%MeOH)
(3) NADPH regenerating system (final Isocitric dehydrogenase conc.= 1 unit/mL at […]
1) β-Nicotinamide adenine dinucleotide phosphate, Vendor: sigma Cat. No. N0505
2) Isocitric acid, Vendor: Sigma Cat. No. I1252
3) Isocitric dehydrogenase, Vendor: sigma Cat. No. I2002
(4) Liver microsome solution preparation (final concentration o f 0.5 mg protein/mL) […]
Cold ACN including 100 ng/mL Tolbutamide and 100 ng/mL Labetalol as internal […]
1) Add 10 μL compound or control working solution/well to all plates (T0, T5, T10, T20, T30, T60, NCF60) except matrix blank.
2) Dispense 680 μL/well microsome solution to 96-well plate as reserv oir according to […]
plate map. Then add 80 μL/well to every plate by Apricot, incubate the mixture of microsome solution and compound at 37℃ for about 10 min.
3) Add 10 μL 100 mM potassium phosphate buffer/well to NCF60, incubate at 37℃, […]
4) After pre-warming, dispense 90 μL/well NADPH regenerating system to 96-well plate as reservoir according to the plate map. Then add 10 μL/well to every plate by Apricot to start reaction.
5) Incubate at 37℃, start timer 2.
6) Add 300 (μL/well) stop solution (cold in 4℃, including 100 ng/mL Tolbutamide and 100 ng/mL Labetalol) to terminate the reaction.
7) The sampling plates are shaked for approx 10 min.
8) Samples are centrifuged at 4000 rpm for 20 min under 4℃.
9) While centrifuging, load 8×new 96-well plate with 300 μL HPLC water, then transfer 100 μL supernatant, mixed for LC/MS/MS.
Use equation of first order kinetics to calculate t1/2 and Clin t(mic): […]
Equation of first order kinetics: […]

[2] = system: TAMs (CD68+ cells) in H526 tumors; assay: Immunofluorescent staining of CD68 (TAMs) in subcutaneous H526 tumors; assay type: in vivo, mouse; conditions: subcutaneous H526 tumors from Fig. 3a, individual tumors
From the text: (§1) Shown are immunofluorescent staining of CD68 (macrophage marker, red) and E-Cadherin (cancer cells, green) (a) and quantification of CD68 positive cells (b) in vehicle, NHWD-870 treated H526 (n = 6) and A2780 (n = 5) tumors from Fig. 3a, b, respectively. Scale bar is 100 μm. […] Shown are representative immunofluorescent staining of Ki67 and CD68 (c) and quantification of percentage of Ki67+ cells in CD68+ cells (d). Scale bar is 30 μm. Data are presented as mean ± SEM of five different tumors. e Schematics of the animal experiments using an orthotopic mouse OC model, established by intraperitoneally injecting human A2780 cells into female recipient nude mice. […] Shown are representative immunofluorescent staining of Ki67 and CD68 (h) and quantification of Ki67^+CD68^− (i) or Ki67^+CD68^+ (j), or CD68^+ cells (k). […] Data are presented as mean ± SEM from five different mice. p values were calculated using two-tailed, unpaired t tests in this figure. *p < 0.05; **p < 0.01; ***p < 0.001. […]
(§2) Immunofluorescence staining of tumor sections was performed according to the manufacturer’s instructions. Slides were imaged using a Zeiss Axiovert 200 fluorescence microscope (Carl Zeiss MicroImaging; Thornwood, NY), and images were captured using Openlab3 software (Imprecision, Lexington, MA). Cleaved caspase 3, Ki67, CSF1, and CD68 positive cells were counted with ImageJ version 1.52s[58].

[3] = system: TAMs (CD68+ cells) in A2780 tumors; assay: Immunofluorescent staining of CD68 and Ki67 (TAMs) in subcutaneous A2780 tumors; assay type: in vivo, mouse; conditions: individual tumors
From the text: as §1, §2

## Cc1nnn(C)c1-c1cnc2c3c4cnn(C)c4ccc3n([C@H](c3ccccc3)C3CCOCC3)c2c1 [NHWD-870]
[1]; rat liver microsomes
  Remaining (T=60min): 22.3%
[1]; rat liver microsomes, no cofactor
  Remaining (*NCF=60min): 76.0%
[1]; rat, liver microsomes, pH 7.4
  CLint scaled at 1 µM: 92 mL/min/kg
  half-life at 1 µM: 27.1 min
[1]; rat, microsomes, pH 7.4
  microsomal CLint at 1 µM: 51.1 µL/min/mg
[1]; time 0
  Remaining in rat liver microsomes (Sup Fig.6b): 100
[1]; time 5
  Remaining in rat liver microsomes (Sup Fig.6b): 91.753
[1]; time 10
  Remaining in rat liver microsomes (Sup Fig.6b): 75.9
[1]; time 20
  Remaining in rat liver microsomes (Sup Fig.6b): 52.356
[1]; time 30
  Remaining in rat liver microsomes (Sup Fig.6b): 42.131
[1]; time 60
  Remaining in rat liver microsomes (Sup Fig.6b): 22.275
[2]
  quantification of CD68 positive cells: 0.3 and 1.5 and 0.1 and 0.7 and 0.5 and 1.1
[3]; subcutaneous A2780 tumors from Fig. 3b
  quantification of CD68 positive cells: 0.5 and 0.3 and 0.2 and 1.2 and 2.3
[3]; subcutaneous A2780 tumors
  percentage of Ki67+ cells in CD68+ cells: 3.1 and 0 (3×) and 1.7

Source: publication PMC7156724, “Potent BRD4 inhibitor suppresses cancer cell-macrophage interaction” (Nature Communications, 2020)
